Values joined by “and” are separate entries in the source; they are usually repeats but may differ in a detail not shown here. Equal entries are not always repeated. Where two headings read alike, the source gives them in different places.
What was measured:
NiV-pVSV = test: microbe, parasite or virus in culture; type: cell-based, Nipah virus envelope pseudotyped onto VSV
enveloped viruses = details: cited from earlier work
[1] = system: enveloped viruses, such as influenza, HIV-1 and TBEV; details: cited from earlier work
[2] = Vesicular stomatitis virus, Vero

Compound	IC50 (NiV-pVSV; [2]) [nM]	antiviral activity in SAR discussion (NiV-pVSV)	IC50 (NiV-pVSV) [nM]	also measured
C=CCN1C(=O)S/C(=C\c2ccc(-c3ccccc3)o2)C1=S [LJ-029, (Z)-3-allyl-5-(5-phenyl-2-furyl)methylene-2-oxothiazolidine-4-thione]	4320			
CCN1C(=O)/C(=C/c2cccc(-c3ccccc3)c2)SC1=S [LJ-019, (Z)-5-(Biphenyl-3-ylmethylene)-3-ethyl-2-thioxothiazolidin-4-one]		inactive		IC50 (μM) (NiV-pVSV): Inactive
CCN1C(=O)/C(=C/c2ccc(-c3ccccc3[N+](=O)[O-])o2)SC1=S [LJ-015, (Z)-3-ethyl-5-((5-(2-nitrophenyl)furan-2-yl)methylene)-2-thioxothiazolidin-4-one]	1300		1030	
CCN1C(=O)S/C(=C\c2ccc(-c3ccccc3[N+](=O)[O-])o2)C1=S [LJ-030, (Z)-3-ethyl-5-((5-(2-nitrophenyl)furan-2-yl)methylene)-2-oxothiazolidin-4-thione]	490			
CCN1C(=O)/C(=C/c2ccc(-c3ccccc3N)o2)SC1=S [LJ-017, (Z)-5-((5-(2-Aminophenyl)furan-2-yl)methylene)-3-ethyl-2-thioxothiazolidin-4-one]	3400	tolerated but led to generally lower activity	1960	
C=CCN1C(=O)C(Cc2ccc(-c3ccccc3)o2)SC1=S (stereo not drawn) [LJ-033, 3-Allyl-5-((5-phenylfuran-2-yl)methyl)-4-oxothiazolidin-2-thione]		completely inactive		IC50 (μM) (NiV-pVSV): Inactive
CCN1C(=S)S/C(=C\c2ccc(-c3ccccc3[N+](=O)[O-])o2)C1=S [LJ-028]				IC50 (NiV-pVSV; read-out: IC50): 2010 nM
C=CCN1C(=O)S/C(=C\c2ccc(-c3ccccc3)o2)C1=O [LJ-025, (Z)-3-Allyl-5-((5-phenylfuran-2-yl)methylene)thiazolidine-2,4-dione]		completely inactive both in vitro and in vivo		virion membrane morphology by EM (pVSV particles): not; IC50 (μM) (NiV-pVSV): Inactive
CCN1C(=O)/C(=C/c2ccc(-c3cccc(F)c3)o2)SC1=S [LJ-007, (Z)-3-Ethyl-5-[5-(3-fluorophenyl)-2-furyl]methylene-4-oxothiazolidine-2-thione]	2500		1450	
C=CCN1C(=S)S/C(=C\c2ccc(-c3ccccc3)o2)C1=S [LJ-027]				IC50 (NiV-pVSV; read-out: IC50): 900 nM
CCN1C(=O)/C(=C/c2ccc(-c3ccccc3[N+]#N)o2)SC1=S.F[B-](F)(F)F [LJ-020, (Z)-3-Ethyl-5-[5-(2-diazoniophenyl)-2-furyl]methylene-4-oxothiazolidine-2-thione tetrafluoroborate]		tolerated but led to generally lower activity		
CCN1C(=O)/C(=C/c2ccc(-c3cccc(OC)c3)o2)SC1=S [LJ-011, (Z)-3-Ethyl-5-[5-(3-methoxyphenyl)-2-furyl]methylene-4-oxothiazolidine-2-thione]	1500		1160	
CN1C(=O)/C(=C/c2ccc(-c3ccccc3)o2)SC1=S [LJ-005, (Z)-3-Methyl-5-(5-phenyl-2-furyl)methylene-4-oxothiazolidine-2-thione]	1500		1220	
CCCN1C(=O)/C(=C/c2ccc(-c3ccccc3)o2)SC1=S [LJ-003, (Z)-3-Propyl-5-(5-phenyl-2-furyl)methylene-4-oxothiazolidine-2-thione]	900		950	
CCN1C(=O)/C(=C/c2ccc(C)o2)SC1=S [LJ-013, (Z)-3-ethyl-5-((5-methylfuran-2-yl)methylene)-2-thioxothiazolidin-4-one]				IC50 (μM) (NiV-pVSV): Inactive
CCN1C(=O)/C(=C/c2ccc(-c3ccccc3OC)o2)SC1=S [LJ-010, (Z)-3-Ethyl-5-[5-(2-methoxyphenyl)-2-furyl]methylene-4-oxothiazolidine-2-thione]	800		400	
CCN1C(=O)/C(=C/c2ccc(-c3ccccc3)s2)SC1=S [LJ-018, (Z)-3-ethyl-5-((5-phenylthiophen-2-yl)methylene)-2-thioxothiazolidin-4-one]	4100	retained activity, albeit at slightly reduced levels	2650	
CC(C)(C)OC(=O)NCCCN1C(=O)/C(=C/c2ccc(-c3ccccc3)o2)SC1=S [LJ-036, (Z)-tert-Butyl 3-(4-oxo-5-((5-phenylfuran-2-yl)methylene)-2-thioxothiazolidine-3-yl)propyl carbamate]				IC50 (NiV-pVSV; read-out: IC50): 740 nM
CCN1C(=O)/C(=C/c2cnc(-c3ccccc3)o2)SC1=S [LJ-023, (Z)-3-Ethyl-5-((2-phenyloxazol-5-yl)methylene)-2-thioxothiazolidin-4-one]	2500	retained activity, albeit at slightly reduced levels	2400	
O=C1NC2CSC(CCCCC(=O)OCCCN3C(=O)/C(=C/c4ccc(-c5ccccc5)o4)SC3=S)C2N1 (stereo not drawn) [LJ-024]		retained good activity		IC50 (NiV-pVSV; read-out: IC50): 1900 nM and 1770 nM
CCCCCCCCCCCCCCCCCCCCCCO [n-docosanol]				IC50 (enveloped viruses): millimolar
CCN1C(=O)/C(=C/c2ccc(-c3ccccc3O)o2)SC1=S [LJ-016, (Z)-3-Ethyl-5-((5-(2-hydroxyphenyl)furan-2-yl)methylene)-2-thioxothiazolidin-4-one]	2200	tolerated but led to generally lower activity	2350	
CC(=O)NCCCN1C(=O)/C(=C/c2ccc(-c3ccccc3)o2)SC1=S [LJ-034, (Z)—N-(3-(4-Oxo-5-((5-phenylfuran-2-yl)methylene)-2-thioxothiazolidin-3-yl)propyl)acetamide]				IC50 (μM) (NiV-pVSV): Inactive
NCCCN1C(=O)/C(=C/c2ccc(-c3ccccc3)o2)SC1=S [LJ-035, (Z)-3-(3-Aminopropyl)-5-((5-phenylfuran-2-yl)methylene)-4-oxothiazolidin-2-thione]				IC50 (μM) (NiV-pVSV): Inactive
lysophosphotidylcholine [LPC]				required molar concentration (total lipid content) [1]: ≥ 10%
C#CCN1C(=O)/C(=C/c2ccc(-c3ccccc3)o2)SC1=S [LJ-032, (Z)-3-(2-propynyl)-5-(5-phenyl-2-furyl)methylene-4-oxothiazolidine-2-thione]	1030			
CCN1C(=O)/C(=C/c2ccco2)SC1=S [LJ-014, (Z)-3-ethyl-5-(furan-2-ylmethylene)-2-thioxothiazolidin-4-one]				IC50 (μM) (NiV-pVSV): Inactive
O=C1NC(=S)S/C1=C\c1ccc(-c2ccccc2)o1 [LJ-031, (Z)-5-(5-phenyl-2-furyl)methylene-4-oxothiazolidine-2-thione]	1040			
(Z)-3-(2,4-Dioxo-5-((5-phenylfuran-2-yl)methylene)thioxothiazolidin-3-yl) propyl-5-(2-oxohexahydro-1H-thieno[3,4-d]imidazol-4-yl)pentanoate [LJ-037]				IC50 (μM) (NiV-pVSV): Inactive

— patent publication US20120219613A1 (priority 2009, published 2012)
